Measured values: US7902223B2, “Phenyl derivatives as factor XA inhibitors” (Merck Patent GmbH, priority 2001, dated 2011)

Tests used:
FXa = FXa (Homo sapiens, UniProt P00742); test: Factor Xa inhibition (FXa-IC50); type: biochemical
Description: The inhibition of factor Xa by the compounds according to the invention and the measurement of the anticoagulant and antithrombotic activity can be determined by conventional in-vitro or in-vivo methods. A suitable method is described, for example, by J. Hauptmann et al. in Thrombosis and Haemostasis 1990, 63, 220-223.
The inhibition of factor Xa can be measured, for example, by the method of T. Hara et al. in Thromb. Haemostas. 1994, 71, 314-319.

TF/FVIIa = TF/FVIIa (Homo sapiens, UniProt P08709); test: TF/factor VIIa inhibition (TF/FVIIa-IC50); type: biochemical
Description: The inhibition of factor VIIa by the compounds according to the invention and the measurement of the anticoagulant and antithrombotic activity can be determined by conventional in-vitro or in-vivo methods. A conventional method for the measurement of the inhibition of factor VIIa is described, for example, by H. F. Ronning et al. in Thrombosis Research 1996, 84, 73-81.

Chain of FXa (P00742 235-488 limits assumed): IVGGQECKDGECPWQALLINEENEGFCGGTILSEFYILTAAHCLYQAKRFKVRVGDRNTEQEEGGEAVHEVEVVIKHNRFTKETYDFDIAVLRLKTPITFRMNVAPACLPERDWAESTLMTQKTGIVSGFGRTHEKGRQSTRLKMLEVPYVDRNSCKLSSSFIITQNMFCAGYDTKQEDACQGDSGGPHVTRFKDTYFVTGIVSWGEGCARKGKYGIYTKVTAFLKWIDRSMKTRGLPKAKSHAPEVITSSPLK
Chain of FXa (P00742 41-179 limits assumed): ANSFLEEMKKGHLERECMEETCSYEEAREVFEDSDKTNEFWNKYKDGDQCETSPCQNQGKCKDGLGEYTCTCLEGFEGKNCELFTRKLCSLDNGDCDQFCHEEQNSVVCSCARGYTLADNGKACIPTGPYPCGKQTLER
Chain of TF/FVIIa (P08709 213-466 limits assumed): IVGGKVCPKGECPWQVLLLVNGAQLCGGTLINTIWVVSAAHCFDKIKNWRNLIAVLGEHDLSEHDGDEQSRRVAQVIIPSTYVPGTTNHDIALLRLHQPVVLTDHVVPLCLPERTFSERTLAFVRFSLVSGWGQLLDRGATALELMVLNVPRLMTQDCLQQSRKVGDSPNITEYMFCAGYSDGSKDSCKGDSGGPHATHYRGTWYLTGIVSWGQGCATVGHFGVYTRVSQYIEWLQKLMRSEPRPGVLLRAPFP
Chain of TF/FVIIa (P08709 61-212 limits assumed): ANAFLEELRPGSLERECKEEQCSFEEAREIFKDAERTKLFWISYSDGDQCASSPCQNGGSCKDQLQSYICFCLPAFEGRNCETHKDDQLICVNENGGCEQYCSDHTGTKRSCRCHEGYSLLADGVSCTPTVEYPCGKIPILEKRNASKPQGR
Chain of TF/FVIIa (P13726 33-295 partner): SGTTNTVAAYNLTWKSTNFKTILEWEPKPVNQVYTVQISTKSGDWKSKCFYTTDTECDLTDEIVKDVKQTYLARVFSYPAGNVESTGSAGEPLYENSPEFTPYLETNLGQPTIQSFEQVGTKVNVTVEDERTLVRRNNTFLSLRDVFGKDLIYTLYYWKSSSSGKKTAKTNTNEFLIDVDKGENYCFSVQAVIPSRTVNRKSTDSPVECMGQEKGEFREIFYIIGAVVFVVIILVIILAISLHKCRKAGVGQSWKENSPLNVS

IC50 (FXa) [µM] | IC50 (TF/FVIIa) [µM] | Structure (SMILES)
0.35 | 0.22 | CCCC(Oc1ccc2ccnc(N)c2c1)C(=O)Nc1ccc(N2CCCCC2=O)cc1 (stereo not shown) [AA, N-[4-(2-Oxopiperidin-1-yl)phenyl]-2-(1-aminoisoquinolin-7-yloxy)-pentanamide]
0.35 | 0.2 | Nc1nccc2ccc(OC(C(=O)Nc3ccc(N4CCCCC4=O)cc3)c3ccccc3)cc12 (stereo not shown) [AB, N-[4-(2-oxopiperidin-1-yl)phenyl]-2-(1-aminoisoquinolin-7-yloxy)-2-phenylacetamide]
